Laboratory results taken from patent publication US9012420B2, “Aptamer for chymase, and use thereof” (Ribomic Inc., priority 2009, dated 2015).
Blank lines part the entries; values can stand above or below the molecule they belong to. Oligonucleotides are written 5' to 3', each unit as a sugar letter and its base; * is a phosphorothioate linkage, no mark a phosphodiester; rarer units and linkages stand in square brackets, end groups in braces. Plain capitals give the bases only. r = 2'-OH (RNA); f = 2'-fluoro

How the values were obtained:
[1] = biological target: T1, native chymase (purified from human skin mast cell) (Homo sapiens, UniProt P23946); test: Chymase inhibitory activity using angiotensin I as substrate, native chymase; type: biochemical; conditions: final 50 μM, chymase 0.2-0.5 nM, 37° C. 90 min, one measurement
T1 construct: the native is chymase purified from human skin mast cell; purchased Calbiochem; host or cells: human skin mast cell
T1 sequence (P23946 22-247): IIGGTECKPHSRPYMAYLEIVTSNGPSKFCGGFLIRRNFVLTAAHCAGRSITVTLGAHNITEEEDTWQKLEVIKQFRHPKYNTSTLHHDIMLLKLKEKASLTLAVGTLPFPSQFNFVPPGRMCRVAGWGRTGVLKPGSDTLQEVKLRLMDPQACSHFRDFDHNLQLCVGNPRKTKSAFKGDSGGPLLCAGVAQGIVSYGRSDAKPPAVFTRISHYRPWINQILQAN
Protocol: (§1) A second method of evaluation employs a native substrate. A useful native substrate for chymase is angiotensin I. Here, His-Leu, a peptide fragment released upon degradation of angiotensin I, is fluorescently derivatized, and the fluorescence intensity therefrom is quantified.
(§2) In the assay, an enzyme reaction is carried out in 50 μL of solution C. First, 0.3-0.75 ng of chymase (recombinant, manufactured by SIGMA; or native, manufactured by Calbiochem) is diluted in solution C to obtain 5 μL chymase solution. Each nucleic acid is prepared in solution C to obtain 25 μL solutions. 5 μL of each chymase dilution and 25 μL of each nucleic acid solution are mixed, and then the mixture is incubated at 37° C. for 5 minutes. […] The angiotensin I solution is added to the mixture of chymase and nucleic acid, and the enzyme reaction is initiated. After the reaction was allowed to proceed at 37° C. for 90 minutes, 25 μL of ice-cooled 30% trichloroacetic acid solution is added to terminate the reaction. The entire mixture is centrifuged at 4° C., 14000 rpm for 10 minutes, and 30 μL of the resulting supernatant is used for the subsequent reaction for fluorescent derivatization.
(§3) After 30 μL of the supernatant is added to a 96-well plate (Black, manufactured by Costar), 15 μL of 2% o-phthalaldehyde (manufactured by SIGMA) solution in methanol and 170 μL of 0.3M NaOH solution are mixed in each well, and the plate is allowed to stand at room temperature for 10 minutes. Subsequently, 25 μL of 3M HCl solution is added to terminate the reaction. The plate is set to the microplate reader SpectraMax190 (manufactured by Molecular Devices Corporation), and the fluorescence intensity is determined at an excitation wavelength of 355 nm and a fluorescence wavelength of 460 nm.
(§4) For control, samples are treated and analyzed in the same manner in two cases: use of SEQ ID NO: 58 (negative control) and use of chymostatin, a known chymotrypsin-like serine protease inhibitor (positive control). In both cases, fluorescence intensity obtained at 0 minute reaction time serves as a blank determination. Taking the fluorescence intensity detected with the addition of an equal volume of solution C, in place of each nucleic acid, in the chymase enzyme reaction as 100%, the inhibitory rate for each test substance is calculated, and the inhibitor concentration required to cause a 50% inhibition of the enzyme activity (IC50) is determined.
(§5) For further assessment of the inhibitory activity of the nucleic acid of the present invention, the enzyme activity of chymase was measured using angiotensin I, which is a native substrate for chymase, according to the following method. Angiotensin I is converted by chymase to angiotensin II, during which a peptide fragment His-Leu is released. Since the peptide His-Leu is fluorescently derivatized by o-phthalaldehyde, its fluorescence intensity can be quantitatively measured.
(§6) The total volume of solution for an enzyme reaction in the assay was set to 50 μL, and the reaction was performed in solution C buffer. First, 0.3-0.75 ng of chymase (recombinant, (manufactured by SIGMA) or native (manufactured by Calbiochem)) was diluted with solution C to give 5 μL thereof. Here, the recombinant is chymase expressed by yeast, and the native is chymase purified from human skin mast cell. The nucleic acid was serially diluted with solution C at a concentration of 0.0027-2 μM to give 25 μL thereof. The chymase solution (5 μL) and the nucleic acid solution (25 μL) were mixed, and the mixture was incubated at 37° C. for 5 min. On the other hand, […] angiotensin I (manufactured by PEPTIDE INSTITUTE, INC.) was prepared in solution C to give […] thereof, which was incubated at 37° C. for 5 min. The angiotensin I solution was added to a mixture of chymase and nucleic acid to start an enzyme reaction. The final chymase concentration of the reaction solution was 0.2-0.5 nM, and the final substrate concentration was 50 μM. […]

[2] = biological target: T2, recombinant chymase (expressed by yeast) (Homo sapiens, UniProt P23946); test: Chymase inhibitory activity using angiotensin I as substrate, recombinant chymase; type: biochemical; conditions: final 50 μM, chymase 0.2-0.5 nM, 37° C. 90 min, one measurement
T2 construct: purchased SIGMA; host or cells: yeast
T2 sequence (P23946 22-247): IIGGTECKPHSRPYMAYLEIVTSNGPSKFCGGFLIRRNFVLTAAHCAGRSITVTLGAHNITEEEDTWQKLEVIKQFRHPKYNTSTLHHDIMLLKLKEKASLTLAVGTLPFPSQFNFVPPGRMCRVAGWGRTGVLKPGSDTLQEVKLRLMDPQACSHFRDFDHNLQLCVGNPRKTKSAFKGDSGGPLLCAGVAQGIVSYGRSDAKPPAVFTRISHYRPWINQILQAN
Protocol: as §1, §2, §3, §4, §5, §6

Molecule: 53 (GGGUAACUAUGGUUAGAUAGAGUUAAAAACCAUAGAAGACCC; 2'-fluoro at CU, RNA at AG, backbone not given here) [compound 53]
IC50 [1]: 764 nM | IC50 [2]: 446 nM

Molecule: 54 (UAACUAUGGUUAGAUAGAGUUAAAAACCAUAGAAGA; 2'-fluoro at CU, RNA at AG, backbone not given here) [compound 54]
IC50 [1]: 614 nM | IC50 [2]: 397 nM

Molecule: 55 (CUAUGGUUAGAUAGAGUUAAAAACCAUAG; 2'-fluoro at CU, RNA at AG, backbone not given here) [compound 55]
IC50 [1]: 606 nM | IC50 [2]: 354 nM

Molecule: 56 (GGGUUAGAUAGAGUUAAAAACCC; 2'-fluoro at CU, RNA at AG, backbone not given here) [compound 56]
IC50 [1]: 508 nM | IC50 [2]: 235 nM

Molecule: 65 (rGrGfCrArGrAfUrArGrArGfUfUrArArArGfCfC) [compound 65]
IC50 [1]: 878 nM | IC50 [2]: 274 nM

Molecule: 70 (GGGTTAGAUAGAGUUAAAAACCC; chemistry not given here) [compound 70]
IC50 [1]: 478 nM | IC50 [2]: 239 nM

Molecule: 71 (GGGUUAGAUAGAGTUAAAAACCC; chemistry not given here) [compound 71]
IC50 [1]: 341 nM | IC50 [2]: 161 nM

Molecule: 72 (GGGTTAGAUAGAGTUAAAAACCC; chemistry not given here) [compound 72]
IC50 [1]: 120 nM | IC50 [2]: 65 nM

IC50 [1]: 350 to 500 nM | IC50 [2]: 450 to 600 nM
Molecule: CC(C)C[C@H](NC(=O)[C@@H](NC(=O)N[C@@H](Cc1ccccc1)C(=O)O)[C@@H]1CCN=C(N)N1)C(=O)N[C@H](C=O)Cc1ccccc1 [chymostatin, reference compound]

Molecule: GGGU(F)U(F)GAAGAU(F)AU(F)U(F)AAAGAAC(F)C(F)C(F) (GGGUUGAAGAUAUUAAAGAACCC; 2'-fluoro at CU, RNA at AG, backbone not given here) [SEQ ID NO: 58]
IC50 [1]: > 1000 nM | IC50 [2]: > 1000 nM

B1: 14 (nucleic acid)
chain: rGrGrGrAfCrGrGfUrArGrGrArAfUfUfCfUfCrGfUfUfCfCfUrGrAfCrArGfCrAfUfUfUrGrArGrAfUrArGrAfUfUfUrArArAfCrArArAfCrGfCrAfCrAfUrArGrArArGrArGfCrGrGfCfCrGfC
modifications: aptamer
IC50 [1]: 63 nM | IC50 [2]: 22 nM

B2: 4 (nucleic acid)
chain: rGrGrGrAfCrGrGfUrArGrGrArAfUfUfCrGfUfCfCrAfUfUfCfUrAfCrArGrAfUrArGrArGrAfUrArArArGfUrArGrArAfUfUfUrArAfCrArArArAfCrAfUrArGrArArGrArGfCrGrGfCfCrGfC
modifications: aptamer
IC50 [1]: 31 nM | IC50 [2]: 3 nM

B3: 13 (nucleic acid)
chain: rGrGrGrAfCrGrGfUrArGrGrArAfUfUfCfCrGfCrArAfCfCrAfUfCfCfCrGfUrArAfCfUrAfUrGrGfUfUrArGrAfUrArGrArGfUfUrArArArArAfCfCrAfUrArGrArArGrArGfCrGrGfCfCrGfC
modifications: aptamer
IC50 [1]: 74 nM | IC50 [2]: 41 nM
